Data set [1] can be described thus: Base promoted cyclization of liberated aglycon after carbonate stop solution. The class given is physicochemical. As to conditions: after addition of carbonate stop solution, pH ≈ 10. On the procedure: With Kdn glycoside 4 in hand, we began assay development. […] We reasoned that hydroxyl group activation is required for cyclization. We therefore allowed the enzymatic reaction to proceed for 5 min and then raised the pH of the solution to a pH of ≈ 10 by addition of a solution of K2CO3 (Fig. 1D). We opted for this raised pH value because it would both facilitate cyclization releasing the 4MU reporter and also terminate the enzyme-catalyzed substrate hydrolysis. Using this approach, we observed a significant increase in fluorescence attributable to AfK-catalyzed hydrolysis of substrate 4. […] That is, in the absence of Kdnase, no hydroxycarbamate aglycon 6 is formed. […] Thus, >98% of the fluorescence signal is produced within 15 min following addition of the basic buffer (Fig. S2, supporting information).

The target in the next data set is T1, AfK (Aspergillus fumigatus, UniProt Q4WQS0).
T1 construct: AfK was expressed and purified as described by Telford et al; made in house
T1 sequence (Q4WQS0 21-406): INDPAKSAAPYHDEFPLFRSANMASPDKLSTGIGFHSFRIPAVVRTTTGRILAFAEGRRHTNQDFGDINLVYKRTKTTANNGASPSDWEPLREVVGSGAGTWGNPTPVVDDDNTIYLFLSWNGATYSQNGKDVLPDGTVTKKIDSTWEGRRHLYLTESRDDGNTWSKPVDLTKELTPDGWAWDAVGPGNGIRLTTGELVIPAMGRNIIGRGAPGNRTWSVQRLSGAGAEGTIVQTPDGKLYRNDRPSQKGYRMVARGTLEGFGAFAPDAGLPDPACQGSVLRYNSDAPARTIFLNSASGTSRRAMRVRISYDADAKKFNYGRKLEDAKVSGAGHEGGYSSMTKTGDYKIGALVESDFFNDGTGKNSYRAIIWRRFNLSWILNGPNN
Nature of the data set: Kdnase activity assay: Michaelis-Menten parameters for AfK-catalyzed hydrolysis of substrates. The class given is biochemical. The settings on record: 100 mM NaOAc pH 4, 0.01% BSA, 21 °C. The source says:
Next, we measured the Michaelis–Menten parameters for AfK-catalyzed hydrolysis of 4 so as to guide assay optimization for the downstream HTS. Specifically, we added stop solution to the AfK-catalyzed reaction at various times and then, after cyclization we measured the fluorescence, which we converted to product concentration using a standard calibration curve (Figs S3–S5, Supporting Information). As expected, our alkyl Kdn glycoside undergoes enzyme-catalyzed hydrolysis with lower rate constants than those for the activated Kdn glycoside 4MU-Kdn. Specifically, the second-order rate constant (kcat/Km) for the AfK-catalyzed hydrolysis of 4 is (4.0 ± 0.8) × 10^3 M^−1 s^−1, while that for 4MU-Kdn (1) is (1.8 ± 0.1) × 10^5 M^−1 s^−1 ([Yeung et al. 2013]) (Table S1, Supporting Information).
The activity of AfK was determined by measuring cleavage of the synthetic Kdnase substrate Kdn-SICL-4MU 4 (Fig. 1). Substrate 4 was incubated at rt for 10 min followed by the addition purified recombinant enzyme. A stop solution containing 100 mM K2CO3 pH ≈ 12 was added at a series of time points starting from 5, 10, 15, 30, 45, 60, 120, 180 min. […] The substrate concentration used ranged of 2–2,000 μM and the amount of 4-methylumbelliferone (4MU) released from 4 was determined using a fluorescence spectrophotometer (BioTek Neo 2) at excitation and emission wavelengths of 360 and 450 nm, respectively. […]

The conditions of data set [2]: no reference given; cited from earlier work.

We go through three molecules from paper PMC11727334, “A self-immolative Kdn-glycoside substrate enables high-throughput screening for inhibitors of Kdnases” (Glycobiology, 2024).

What is called Km is the substrate concentration at which the rate is half of its maximum. For orientation: pKa means the negative logarithm of the acid dissociation constant.

In the case of `Cc1cc(=O)oc2cc(OC(=O)N(C)CCO)ccc12` [compound 6], in data set [1], the “half-life (t1/2) of first-order cyclization” value is “approximately 2.5 min”.
In the case of `Cc1cc(=O)oc2cc(OC(=O)N(C)CCO[C@]3(C(=O)O)C[C@H](O)[C@@H](O)[C@H]([C@H](O)[C@H](O)CO)O3)ccc12` [compound 4, N-methyl-(N-4′-methylumbelliferylcarbonyl)-2-aminoethyl 3-deoxy-D-glycero-α-D-galacto-non-2-ulopyranosidonic acid], at AfK, the Km was 950 µM and the kcat was 3.7 ± 0.2 s–1.
Turning to `Cc1cc(=O)oc2cc(O)ccc12` [4MU, 4-methylumbelliferone], in data set [2], the pKa is 8.4.
